Experimental data taken from publication PMC9131871, “Impact of Micropolymorphism Outside the Peptide Binding Groove in the Clinically Relevant Allele HLA-C*14 on T Cell Responses in HIV-1 Infection” (Journal of Virology, 2022).
Entries after “also recorded” stand apart in the source; their conditions may differ.

Legend:
[1] = test system: PBMCs from HIV-1-infected HLA-C*14:02+ or HLA-C*14:03+ individuals; assay: ex vivo IFN-γ ELISPOT assay; assay type: cell-based, human; details: 1 μM peptide; for HLA-C*14 subtype of the individuals in whom responses were detected: initial screening, 10 HLA-C*14:02+ and 10 HLA-C*14:03+ individuals
Text: To clarify whether these HLA-C*14:02- and C*14:03-binding HIV-1 peptides were T cell epitopes, we investigated T cell responses to these peptides in HIV-1-infected individuals. We assessed T cell targeting of 14 putative HIV-1 epitope sites by testing responses to the 14 NL4-3 sequence-based peptides and 9 variant peptides in 10 HLA-C*14:02^+ and 10 HLA-C*14:03^+ treatment-naive individuals living with HIV-1 subtype B using ex vivo gamma interferon (IFN-γ) ELISPOT assays. To identify HLA-C*14-restricted immunodominant epitopes, we investigated whether these peptides were recognized by virus-specific T cells in 20 individuals enabling detection of epitopes typically targeted in >5% of HLA-C*14^+ individuals. […] T cell responses to variant versions of the Gag LY9, Pol KM9, and Nef IF8 peptides were detected in a number of individuals similar to the number with responses to their NL4-3 sequence-based counterparts (Fig. 3A).
FIG 3 T cell responses to HLA-C*14:02- and/or HLA-C*14:03-binding HIV-1 peptides. (A) T cell responses to HLA-C*14:02/03-binding peptides in 20 chronically HIV-1-infected Japanese individuals with HLA-C*14:02 or HLA-C*14:03. T cell targeting of 14 putative epitopes was analyzed by testing responses to 14 NL4-3 sequence-based peptides and 9 peptides that were sequence variants thereof in ex vivo IFN-γ ELISPOT assays (peptides tested at a concentration of 1 μM). A positive response was defined as >100 spots/10^6 PBMCs (indicated by the horizontal dotted line). (B) Correlation between peptide binding to HLA-C*14:02 or HLA-C*14:03 and the frequency of responders to these peptides in HLA-C*14:02^+ (blue) and HLA-C*14:03^+ (red) individuals for NL4-3 sequence-based versions of the peptides only (left) or both NL4-3 sequence-based and variant peptides (right). Statistical analyses were performed using Pearson's correlation test.
PBMCs were separated from whole blood and stored at −80°C. ELISPOT assays were performed as previously described ([13]). Briefly, 1 × 10^5 PBMCs from HIV-1-infected individuals and a 1 μM concentration of each HLA-C*14:02- and -C*14:03-eluted HIV-1 peptide were added to 96-well polyvinylidene plates (Millipore) that had been coated overnight with 5 μg/mL anti-IFN-γ MAb 1-D1K (Mabtech). The plates were incubated for 16 h at 37°C in 5% CO2, and then the cells were stained as previously described in detail ([13]). The spots were counted with an Eliphoto-Counter instrument (Minerva Teck). The number of spots was calculated per 10^6 PBMCs; 100 spots/10^6 PBMCs was defined as a positive response, as described previously ([13]).

[2] = molecular target: HLA-C*14:03 (Homo sapiens, UniProt P10321, A176E/A330V/A35S/A97T/C350S/D114A/D33S/L171W/L180R/L218V/M285V/M309V/M331V/P208H/Q277E/Q291P/R121W/R243W/R45H/S123F/S297R/S48A/T329A/T363A/V319A); assay: LC-MS/MS identification of HLA-bound HIV-1 peptides from NL4-3-infected .221-C1403 cells; assay type: binding; parameters: key: ●: Closed circles indicate the peptide which was identified in HLA-C*1402 or/and -C*1403 expressing cells; details: HIV-1 NL4-3-infected .221-C1403 cells, W6/32 immunoprecipitation, two independent replicate experiments
Protocol: (§1) 721.221 cells expressing CD4 and HLA-C*14:02 (.221-C1402) or HLA-C*14:03 (.221-C1403) were infected with the laboratory-adapted NL4-3 HIV-1 strain. HLA-peptide complexes were isolated from cell lysates by immunoprecipitation with the anti-HLA class I antibody W6/32; then, peptides were eluted, fractionated by high-performance liquid chromatography (HPLC), and finally analyzed by LC-MS/MS. Two independent replicate experiments were performed, in which a total of 7,970 and 8,447 unique 8- to 13-mer peptide sequences were identified from .221-C1402 and .221-C1403 cells, respectively (Fig. 1A). Of these peptides, 6,163 were identified in both the C*14:02- and C*14:03-bound peptide data sets, while other peptides were detected in the acid-eluted fraction from only a single allele. […] These motifs are consistent with the HLA-C*1402/03 peptide motifs previously estimated using reported epitopes ([29]).
(§2) .221-C1402 and .221-C1403 cells were infected with HIV-1 NL4-3 in a low volume of RPMI 1640 medium (Thermo Fisher) containing 10% fetal bovine serum (FBS), 2 mM L-glutamine, 100 U/mL penicillin, 100 μg/mL streptomycin, and 10 mM HEPES (R10). Fifty microliters of NL4-3 stock virus (Reverse transcriptase activity (RT) value = 4 × 10^2 ng/mL) was added to 8 × 10^6 .221-C1402 cells or .221-C1403, and the cells were then incubated for 1.5 h at 37°C, after which 20 mL of R10 was added and the cells were cultured overnight. At day 1 postinfection, a further 20 mL R10 was added, and cells were split (1:2) on day 2. On day 3 postinfection, the proportion of cells infected with HIV-1 was determined by intracellular p24 staining, as previously described ([46]). Infected flasks were then harvested for immunoprecipitation of HLA-peptide complexes.
(§3) .221-C1402 cells or .221-C1403 cells infected with NL4-3 (1.5 × 10^8 to 2 × 10^8 cells) were harvested, washed in phosphate-buffered saline (PBS), and lysed in 5 mL of lysis buffer (1% IGEPAL 630, 300 mM NaCl, 100 mM Tris [pH 8.0], plus protease inhibitors) at 4°C for 45 min. Two centrifugation steps (2,000 × g for 10 min followed by 20,000 × g for 30 min at 4°C) were next employed to clear the lysates of cell debris prior to overnight capture of HLA-peptide complexes on W6/32-coated protein A‐Sepharose beads. W6/32-bound HLA-peptide complexes were sequentially washed with 10 to 20 mL of wash buffer 1 (0.005% IGEPAL, 50 mM Tris [pH 8.0], 150 mM NaCl, 5 mM EDTA), wash buffer 2 (50 mM Tris [pH 8.0], 150 mM NaCl), wash buffer 3 (50 mM Tris [pH 8.0], 400 mM NaCl), and finally wash buffer 4 (50 mM Tris [pH 8.0]) under gravity flow in Econo-Column glass chromatography columns (Bio-Rad). Peptide-HLA complexes were eluted from the beads with 5 mL of 10% acetic acid and, after drying under vacuum, were loaded onto a 4.6- by 50-mm ProSwift RP-1S column (Thermo Fisher Scientific) and eluted from an Ultimate 3000 HPLC system (Thermo Scientific) using a 500-μL/min flow rate over 10 min from 2% to 34% buffer B (0.1% trifluoroacetic acid [TFA] in acetonitrile) in buffer A (0.1% TFA in water). Alternate fractions were pooled to give two final peptide fractions that were dried for LC-MS/MS analysis.
(§4) Each HPLC-eluted sample was resuspended in 20 μL loading buffer, and 9 μL of it was injected onto a 3-μm-particle-size 0.075-mm by 150-mm Acclaim PepMap RSLC C18 column and further loaded onto a 2-μm-particle-size, 75-μm by 50-cm Acclaim PepMap RSLC C18 column using an Ultimate 3000 nUPLC system (Thermo Scientific). A linear gradient of 3 to 25% buffer B (0.1% formic acid, 5% dimethyl sulfoxide [DMSO] in acetonitrile) in buffer A (0.1% formic acid, 5% DMSO in water) was applied over 1 h to elute peptides from the column (flow rate of […]). Peptides were introduced, using an Easy-Spray source at 2,000 V at 40°C, into a Fusion Lumos mass spectrometer (Thermo Scientific). The ion transfer tube temperature was set to 305°C. […]

[3] = molecular target: HLA-C*14:02 (Homo sapiens, UniProt P10321, A176E/A330V/A35S/A97T/C350S/D114A/D33S/L171W/L180R/L218V/M285V/M309V/M331V/P208H/Q277E/Q291P/R121W/R243W/S123F/S297R/S48A/T329A/T363A/V319A); assay: LC-MS/MS identification of HLA-bound HIV-1 peptides from NL4-3-infected .221-C1402 cells; assay type: binding; parameters: key: ●: Closed circles indicate the peptide which was identified in HLA-C*1402 or/and -C*1403 expressing cells; details: HIV-1 NL4-3-infected .221-C1402 cells, W6/32 immunoprecipitation, two independent replicate experiments
Protocol: as §1, §2, §3, §4

[4] = 10 HLA-C*14:02+ and 10 HLA-C*14:03+ treatment-naive individuals, positive >100 spots/10^6 PBMCs

| Sequence | T cell responses to peptide detected [1, 4] | C1403: peptide identified by LC-MS/MS in HLA-I eluate [2] | C1402: peptide identified by LC-MS/MS in HLA-I eluate [3] | also measured |
| --- | --- | --- | --- | --- |
| LYNTIAVL [Gag LL8, HIV-1 NL4-3 Gag 78–85 peptide LYNTIAVL eluted from HLA-C*14-expressing cells] | No T cell recognition; also recorded: no strong T cell responses | ● | ● |  |
| VTIGKIGNM [Env VM9, HIV-1 NL4-3 Env 318–326 peptide …, eluted only, not synthesized] |  |  | ● |  |
| VYYDPSKDLIA [Pol VA11, HIV-1 NL4-3 Pol 472–482 peptide […]] |  | ● |  |  |
| FHHVAREL [Nef FL8, HIV-1 NL4-3 Nef 191–198 peptide FHHVAREL] |  | ● | ● |  |
| PQGKAREF [Pol PF8, HIV-1 NL4-3 Pol 9–16 peptide PQGKAREF, eluted only, not synthesized] |  | ● |  |  |
| AFVTIGKIGNM [Env AM11, HIV-1 NL4-3 Env 316–326 peptide […], eluted only, not synthesized] |  | ● |  |  |
| VYLAWVPAH [Pol VH9, HIV-1 NL4-3 Pol 686–694 peptide …] |  | ● |  |  |
| IYHTQGYFP [Nef IP9, HIV-1 NL4-3 Nef 114–122 peptide …] |  | ● | ● |  |
| VWGRDNNSL [Pol VWL9, HIV-1 NL4-3 Pol 33–41 peptide …, eluted only, not synthesized] |  | ● | ● |  |
| VYHTQGYF [Nef IF8-1V, variant of Nef IF8, VYHTQGYF, present in Japanese cohort viruses] | detected in one or more individuals |  |  |  |
| YTSLIHSLI [Env YI9, HIV-1 NL4-3 Env 638–646 peptide …, eluted only, not synthesized] |  |  | ● |  |
| SFNISTSI [Env SI8, HIV-1 NL4-3 Env 158–165 peptide SFNISTSI, eluted only, not synthesized] |  | ● |  |  |
| AFPQGKAREF [Pol AF10, HIV-1 NL4-3 Pol 7–16 peptide […], eluted only, not synthesized] |  | ● | ● |  |
| LFNTVAVLY [Gag LY9-2F5V, variant of Gag LY9, …, present in Japanese cohort viruses] | detected in one or more individuals |  |  |  |
| AFHHMAREK [Nef AL9-5M9K, variant of Nef AL9, …, present in Japanese cohort viruses] | not detected in any of the 20 individuals |  |  |  |
| FYVDGAANRET [Pol FT11, HIV-1 NL4-3 Pol 595–605 peptide […]] |  | ● |  |  |
| KYHNNWRAM [Pol KM9-4N, variant of Pol KM9, …, present in Japanese cohort viruses] | detected in one or more individuals |  |  | HLA-C*14 subtype of the individuals in whom responses were detected [1]: detected in only HLA-C*14:02^+ or HLA-C*14:03^+ individuals |
| LFNTVAVL [Gag LL8-2F5V, variant of Gag LL8, LFNTVAVL, present in Japanese cohort viruses] | detected in one or more individuals; also recorded: weak response |  |  | number of individuals with T cell response, of 20 tested [1, 4]: one; HLA-C*14 subtype of the individuals in whom responses were detected [1]: detected in only HLA-C*14:02^+ or HLA-C*14:03^+ individuals |
